Data: US11465987B2, “Compounds for treatment of cancer” (ONCTERNAL THERAPEUTICS, INC., priority 2012, dated 2022)
Where two headings read alike, the source gives them in different places.

What was measured:
[1] = tested on: tubulin (colchicine, vinblastine and paclitaxel binding sites); experiment: MS competition binding assay; details: competitive mass binding assay
Source text: Each reaction was run in triplicate.

Bovine brain tubulin = experiment: In vitro tubulin polymerization assay (bovine brain tubulin); assay type: biochemical; details: 10 μM
Protocol: The spectrophotometer was maintained at 37° C. for tubulin polymerization.

[2] = tested on: PC-3 human prostate cancer cell line; experiment: cells; details: Homo sapiens
Source text: (§1) Cells were stained with SRB solution.

[3] = Rotarod test (in vivo neurotoxicity); parameters: species or system mouse; details: ICR mice, i.p. daily; 1h 5 or 15 mg/kg, vinblastine 0.5 mg/kg
Protocol: ICR mice received training three times a day for two days to enable them to stay on the rotating rod for >120 seconds at 12 rpm. Mice were then randomized by the length of time that they could stay on the rotating rod and divided into 7-8 mice per group. […] The rotarod test was performed twice a week. […] The rod speed was increased from […] to 40 rpm over a period of 5 min. Performance was measured as the length of time that a mouse could stay on the rotating rod.

PC-3 xenograft = experiment: In vivo PC-3 prostate tumor xenograft; details: for mice that lost more than 15% body weight: PC-3 xenograft, 15 mg/kg i.p.; for tumor volume at day 21: control 680 mm^3
[4] = Pharmacokinetic study in ICR mice; details: mice, 15 mg/kg i.v.
[5] = tested on: A375 human melanoma xenograft; experiment: In vivo A375 human melanoma xenograft
[6] = Pharmacokinetic study in Sprague-Dawley rats; details: rat
[7] = tested on: A375 human melanoma cell line; experiment: Cytotoxicity (SRB) assay, A375; assay type: cell-based; details: Homo sapiens, A-375, SRB assay, human melanoma A375; read-out: IC50 A375
[8] = Aqueous solubility, Multiscreen Solubility Filter Plate, PBS pH 7.4
[9] = tested on: PPC-1 human prostate cancer cell line; experiment: Cytotoxicity (SRB) assay, PPC-1; assay type: cell-based; details: Homo sapiens, PPC-1, SRB assay, prostate cancer PPC-1; read-out: IC50 PPC-1
Source text: as §1

[10] = tested on: DU 145 human prostate cancer cell line; experiment: Cytotoxicity (SRB) assay, DU 145; assay type: cell-based; details: Homo sapiens, DU-145, SRB assay, prostate cancer DU 145; read-out: IC50 DU 145
Source text: as §1

[11] = tested on: melanoma and prostate cancer cell lines; experiment: Antiproliferative activity summarised over the cell line panel (range or average); assay type: cell-based; details: read-out: IC50 (range over tested cell lines)
[12] = tested on: B16-F1 mouse melanoma cell line; experiment: Cytotoxicity (SRB) assay, B16-F1; assay type: cell-based; details: Mus musculus, B16-F1, SRB assay, mouse melanoma B16-F1; read-out: IC50 B16-F1
[13] = tested on: LNCaP human prostate cancer cell line; experiment: Cytotoxicity (SRB) assay, LNCaP; assay type: cell-based; details: Homo sapiens, LNCaP, SRB assay, prostate cancer LNCaP; read-out: IC50 LNCaP
Source text: as §1

PC-3 cells = experiment: Cell cycle analysis (PI staining, FACS), PC-3; assay type: cell-based; details: Homo sapiens, read-out: G2M phase arrest EC50
Protocol: Cell cycle distribution was determined by propidium iodide (PI) staining. Treated cells were washed with PBS and fixed with 70% ice-cold ethanol overnight. Fixed cells were then stained with 20 μg/mL of PI in the presence of RNase A (300 μg/mL) at 37° C. for 30 min. Cell cycle distribution was analyzed by fluorescence-activated cell sorting (FACS) analysis core services at the University of Tennessee Health Science Center, TN.
Flow cytometry was performed to study the effects of the compounds on cell cycle distribution. […] Cellular DNA was stained with 100 μg/mL propidium iodide and 100 μg/mL RNase A in PBS and flow cytometry was performed to determine the cell cycle distribution of the cells.

HEK293-pcDNA3.1 cells = experiment: Cytotoxicity assay, HEK293-pcDNA3.1 (parental line of the MRP/BCRP sublines); assay type: cell-based; details: Table 14B; parental cell line; read-out: IC50 ± SEM, HEK293-pcDNA3.1
[14] = tested on: OVCAR-8 human ovarian cell line; experiment: Cytotoxicity (SRB) assay, OVCAR-8; assay type: cell-based; details: Table 14B, parental cell line, read-out: IC50 ± SEM, OVCAR-8
[15] = tested on: A375MA2 melanoma cell line; experiment: Cytotoxicity assay, A375MA2; assay type: cell-based; details: Table 14B, n = 3; read-out: IC50 ± SEM, A375MA2
WM-164 melanoma cells = experiment: Microtubule imaging (immunofluorescence); assay type: cell-based, human; details: WM-164 cells, 18 h
Source text: Primary antibody for tubulin and fluorescence-labeled secondary antibody were subsequently added to the cells. Cell nuclei were stained by DAPI. Whole Cell Stain Green was also applied to all cells. All images were acquired with an Olympus IX71 inverted fluorescence microscope (Olympus Corp., Tokyo, Japan) with overlays from separate images of tubulin (red), nuclei (blue), and whole cells (green).

[16] = tested on: T1, tubulin colchicine binding site; experiment: [3H]-colchicine competition-binding scintillation proximity assay; details: SPA, 0.03-100 μM
T1 construct: […]

[17] = tested on: MDA-MB-435/LCCMDR1 multidrug-resistant melanoma cells; experiment: Cytotoxicity (SRB) assay, MDA-MB-435/LCCMDR1; assay type: cell-based; details: MDR melanoma line vs sensitive parent line
B16-F1 melanoma tumors = experiment: In vivo B16-F1 melanoma allograft; parameters: species or system mouse; details: C57BL/6 mice, 13 days
Protocol: Female C57/BL mice, age 4-6 weeks, were purchased from Harlan Laboratories (Harlan Laboratories Inc., Indianapolis, Ind.). The animal housing met the Association for Assessment and Accreditation and Laboratory Animal Care specifications. All of the procedures were conducted in accordance with guidelines of our Institutional Animal Care and Use Committee.
Tumor volume was expressed in cubic millimeters.

[18] = tested on: NCI/ADR-RES (P-gp over-expressing resistant line of OVCAR-8); experiment: Cytotoxicity (SRB) assay, NCI/ADR-RES; assay type: cell-based, human; details: Homo sapiens, NCI/ADR-RES; Table 14B; MDR1 overexpressed; read-out: IC50 ± SEM, NCI/ADR-RES
[19] = read-out: IC50 PC-3, SRB assay, prostate cancer PC-3
[20] = Melanoma (A375) xenograft, 15 mg/kg i.p.
[21] = IV, 1h and 2r […], 5Ha and 5Hc 5 mg/kg

Compound: COc1cc(C(=O)c2csc(-c3ccccc3)n2)cc(OC)c1OC [1h, (2-Phenyl-thiazol-4-yl)-(3,4,5-trimethoxy-phenyl)-methanone]
- dose not causing greater than 10% loss of body weight (ICR, mouse, in vivo, ip): up to 30 mg/kg
- competition for tubulin binding sites in words [1]: specifically competed with colchicine binding to tubulin
- inhibition of tubulin polymerization (Bovine brain tubulin; absorbance 340 nm over 15 min): 90%
- inhibition of tubulin polymerization (Bovine brain tubulin; after 20 min incubation, vs vehicle): 47%
- IC50 [2, 19]: 29.1 ± 1.1 nM
- IC50 ([2]; read-out: IC50 in PC3, Table 16B): 21 nM
- IC50 ([2]; read-out: IC50 ± SEM, PC-3, Table 21, n = 3): 21 ± 1 nM
- rotarod performance in words [3]: no significant difference
- % T/C (PC-3 xenograft; PC-3, 5 mg/kg i.p.): 29%
- % T/C (PC-3 xenograft; PC-3, 15 mg/kg i.p.): 4%
- mice that lost more than 15% body weight (PC-3 xenograft): 1 of 8

Compound: COc1cc(C(=O)c2csc(-c3ccc(F)cc3)n2)cc(OC)c1OC [2k]
- dose not causing greater than 10% loss of body weight (ICR mice, 4 consecutive days of intraperitoneal dosing): ≤ 15 mg/kg
- AUC [4]: 2200 ng·h/mL
- % T/C [5, 20]: 28%
- T-C [5, 20]: 11 days
- inhibition of tubulin polymerization (Bovine brain tubulin; absorbance 340 nm over 15 min): 90%
- % T/C (PC-3 xenograft; PC-3, 5 mg/kg i.p.): 21%
- tumor volume at day 21 (PC-3 xenograft; PC-3, 5 mg/kg i.p. daily): 269 mm^3
- % T/C (PC-3 xenograft; PC-3, 15 mg/kg i.p.): 24%
- tumor volume at day 21 (PC-3 xenograft; PC-3, 15 mg/kg i.p. daily): 292 mm^3
- mice that lost more than 15% body weight (PC-3 xenograft): 2 out of 7

Compound: COc1cc(C(=O)c2csc(-c3ccc(CN)cc3)n2)cc(OC)c1OC.Cl [2r, (2-(4-(Aminomethyl)phenyl)thiazol-4-yl)(3,4,5-trimethoxyphenyl)methanone hydrochloride]
- F, percent oral bioavailability [6]: 0.2%
- CL, systemic clearance [6, 21]: 22 ± 13 mL/min/kg
- Vss, volume of distribution following intravenous dosing [6, 21]: 0.33 ± 0.25 L/kg
- Cmax, PO ([6]; PO, 1h, 5Ha, 5Hc 10 mg/kg, 2r 4 mg/kg): 3794 ± 1580 ng/mL
- IC50 [7]: 41 ± 13 nM
- increase of solubility ([8]; HCl salt, PBS): over 35 fold
- aqueous solubility in PBS ([8]; PBS pH 7.4): over 35 μg/mL
- IC50 [9]: 34 nM
- IC50 [10]: 25 nM
- IC50 [11]: 13 to 80 nM
- IC50 [2, 19]: 80 nM
- IC50 [12]: 38 ± 11 nM
- IC50 [13]: 13 nM

Compound: COc1cc(-c2nccc3ccc(-c4ccc5[nH]ccc5c4)cc23)cc(OC)c1OC [6a]
- EC50 (PC-3 cells): 53.4 nM
- IC50 ([2]; read-out: IC50, PC-3, Table 7): 64.4 ± 12.2 nM

Compound: c1cc2ccc(-c3ccc4[nH]ccc4c3)cc2c(-c2ccc3[nH]ccc3c2)n1 [6b, 1,7-Bis-(1H-indol-5-yl)-isoquinoline]
- EC50 (PC-3 cells): 91.9 nM

Compound: COc1ccc(-c2nc(C(=O)c3ccc(F)cc3)c[nH]2)cc1 [12cb, (4-fluorophenyl)(2-(4-methoxyphenyl)-1H-imidazol-4-yl)methanone]
- IC50 (HEK293-pcDNA3.1 cells): 12 ± 2 nM
- IC50 [14]: 25 ± 2 nM
- IC50 [15]: 44 ± 5 nM
- effect on microtubules in words (WM-164 melanoma cells): microtubule fragmentation

Compound: COc1cc(C(=O)c2c[nH]c(-c3ccc(C)cc3)n2)cc(OC)c1OC [12da, (2-(p-tolyl)-1H-imidazol-4-yl)(3,4,5-trimethoxyphenyl)methanone]
- colchicine site binding in words [16]: highest binding affinity
- effect on microtubules in words (WM-164 melanoma cells): microtubule fragmentation

Compound: O=C(c1ccc(F)cc1)c1c[nH]c(-c2ccc(Cl)cc2)n1 [12fb, (2-(4-chlorophenyl)-1H-imidazol-4-yl)(4-fluorophenyl)methanone]
- IC50 (HEK293-pcDNA3.1 cells): 54 nM
- P-gp substrate / multidrug resistance in words [17]: not substrates for P-gp
- IC50 [14]: 45 ± 2 nM
- well tolerated dose ([5]; SHO mice, 31 days): 25 mg/kg
- IC50 [15]: 55 ± 4 nM
- tumor growth inhibition (TGI value) (B16-F1 melanoma tumors; 15 mg/kg): 32%
- tumor growth inhibition (TGI value) (B16-F1 melanoma tumors; 45 mg/kg): 82%
- IC50 [18]: 20 ± 6 nM

Compound: CC(=O)O[C@H]1C(=O)[C@@]2(C)[C@H]([C@H](OC(=O)c3ccccc3)[C@]3(O)C[C@H](OC(=O)[C@H](O)[C@@H](NC(=O)c4ccccc4)c4ccccc4)C(C)=C1C3(C)C)[C@]1(OC(C)=O)CO[C@@H]1C[C@@H]2O [paclitaxel, reference compound]
- colchicine site binding in words [16]: only a flat line
- effect on microtubules in words (WM-164 melanoma cells): condensation of microtubules
